Our source for the zone of inhibition and Activity values is ChEMBL document CHEMBL3046091, “Synthesis and antimicrobial activities of 2-azetidinyl-4-quinazolinone derivatives of diclofenac analogue” (2011).

What all share (type): functional
In experiment [1] the test system is Escherichia coli. Kind of experiment: Antibacterial activity against Escherichia coli ATCC 25922 at 50 ug/ml by cup-plate method. The following applies: read-out: IZ.
In experiment [2] the test system is Candida albicans. Kind of experiment: Antifungal activity against Candida albicans ATCC 10231 at 50 ug/ml by cup-plate method. Conditions: read-out: IZ.
In experiment [3] the test system is Bacillus subtilis. Nature of the experiment: Antibacterial activity against Bacillus subtilis ATCC 6633 at 50 ug/ml by cup-plate method. Conditions: read-out: IZ.
For experiment [4], the system named is Escherichia coli. Nature of the experiment: Antibacterial activity against Escherichia coli ATCC 25922 at 50 to 100 ug/ml by cup-plate method.
Experiment [5] relates to Bacillus subtilis. Kind of experiment: Antibacterial activity against Bacillus subtilis ATCC 6633 at 100 ug/ml by cup-plate method. The following applies: read-out: IZ.
For experiment [6], the system named is Candida albicans. Nature of the experiment: Antifungal activity against Candida albicans ATCC 10231 at 100 ug/ml by cup-plate method. The following applies: read-out: IZ.
The subject of experiment [7] is Staphylococcus aureus. Kind of experiment: Antibacterial activity against Staphylococcus aureus ATCC 9144 at 50 to 100 ug/ml by cup-plate method.
The subject of experiment [8] is Staphylococcus aureus. Kind of experiment: Antibacterial activity against Staphylococcus aureus ATCC 9144 at 100 ug/ml by cup-plate method. The following applies: read-out: IZ.
In experiment [9] the test system is Pseudomonas aeruginosa. Kind of experiment: Antibacterial activity against Pseudomonas aeruginosa ATCC 9027 at 100 ug/ml by cup-plate method. The following applies: read-out: IZ.
Experiment [10] concerns Bacillus subtilis. Kind of experiment: Antibacterial activity against Bacillus subtilis ATCC 6633 at 50 to 100 ug/ml by cup-plate method.
Experiment [11] deals with Staphylococcus aureus. Kind of experiment: Antibacterial activity against Staphylococcus aureus ATCC 9144 at 50 ug/ml by cup-plate method. Conditions: read-out: IZ.
Experiment [12] concerns Pseudomonas aeruginosa. Nature of the experiment: Antibacterial activity against Pseudomonas aeruginosa ATCC 9027 at 50 ug/ml by cup-plate method. The following applies: read-out: IZ.
Experiment [13] deals with Pseudomonas aeruginosa. Nature of the experiment: Antibacterial activity against Pseudomonas aeruginosa ATCC 9027 at 50 to 100 ug/ml by cup-plate method.
For experiment [14], the system named is Escherichia coli. Nature of the experiment: Antibacterial activity against Escherichia coli ATCC 25922 at 100 ug/ml by cup-plate method. The following applies: read-out: IZ.

Structures are written as SMILES.

In the case of `O=C1C(Cl)C(c2cccc([N+](=O)[O-])c2)N1c1ccc(-n2c(Cc3ccccc3Nc3c(Cl)cccc3Cl)nc3ccc(Br)cc3c2=O)cc1` (stereo not given), the zone of inhibition at 50 µg/mL in [1] was 2 mm; in experiment [2], 1 mm; in experiment [3], 2 mm; in experiment [11] it was 1 mm; in experiment [12] it was 2 mm. In addition, the Activity in [4] is reported as 32.65%; in experiment [7], 29.73%; in experiment [10], 32.65%; in [13] it was 36.75%. Moreover, the zone of inhibition at 100 µg/mL was 4 mm in experiment [5]; 2 mm in experiment [6]; 3 mm in experiment [8]; 4 mm in experiment [9]; 4 mm in experiment [14].

`CCN(CC)c1ccc(C2C(Cl)C(=O)N2c2ccc(-n3c(Cc4ccccc4Nc4c(Cl)cccc4Cl)nc4ccc(Br)cc4c3=O)cc2)c(O)c1` (stereo not given): the zone of inhibition at 50 µg/mL in experiment [1], in [2], in experiment [3], in [11] and in experiment [12] was 0 mm each time. In addition, the Activity in experiment [4], in experiment [7], in experiment [10] and in [13] was 0% throughout. Moreover, the zone of inhibition at 100 µg/mL in experiment [5], in experiment [6], in experiment [8], in [9] and in [14] was 0 mm each time.

`O=C1C(Cl)C(c2ccccc2O)N1c1ccc(-n2c(Cc3ccccc3Nc3c(Cl)cccc3Cl)nc3ccc(Br)cc3c2=O)cc1` (stereo not given): the zone of inhibition at 50 µg/mL was 3 mm in [1]; 0 mm in experiment [2]; 3 mm in experiment [3]; 3 mm in [11]; 4 mm in experiment [12]. The Activity in experiment [4] worked out at 43.53%; in experiment [7], 50.98%; in experiment [10], 42.68%; in experiment [13], 50%. Besides, the zone of inhibition at 100 µg/mL in experiment [5] stood at 6 mm; in experiment [6], 0 mm; in experiment [8] it was 6 mm; in experiment [9], 6 mm; in experiment [14], 6 mm.

As for `O=C1C(Cl)C(c2ccc(O)cc2)N1c1ccc(-n2c(Cc3ccccc3Nc3c(Cl)cccc3Cl)nc3ccc(Br)cc3c2=O)cc1` (stereo not given), the zone of inhibition at 50 µg/mL in [1] was 2 mm; in experiment [2] it was 0 mm; in experiment [3], 3 mm; in experiment [11], 3 mm; in [12] it was 4 mm. For the same compound, the Activity in experiment [4] came out at 37.89%; in experiment [7] it was 44.44%; in experiment [10], 35.08%; in experiment [13], 58.33%. The zone of inhibition at 100 µg/mL was determined as 5 mm in experiment [5]; 0 mm in experiment [6]; 5 mm in [8]; 7 mm in [9]; 5 mm in [14].

With `O=C1C(Cl)C(c2ccccc2Cl)N1c1ccc(-n2c(Cc3ccccc3Nc3c(Cl)cccc3Cl)nc3ccc(Br)cc3c2=O)cc1` (stereo not given), the zone of inhibition at 50 µg/mL in experiment [1] came to 3 mm; in experiment [2] it was 2 mm; in [3], 3 mm; in [11], 4 mm; in experiment [12], 4 mm. Moreover, the Activity is on record as 44.56% in [4], 65.76% in experiment [7], 41.48% in experiment [10] and 58.33% in experiment [13]. The zone of inhibition at 100 µg/mL in experiment [5] was determined as 6 mm; in experiment [6] it was 3 mm; in experiment [8], 8 mm; in [9] it was 7 mm; in experiment [14] it was 6 mm.

Consider `O=C1C(Cl)C(c2ccc(Cl)cc2)N1c1ccc(-n2c(Cc3ccccc3Nc3c(Cl)cccc3Cl)nc3ccc(Br)cc3c2=O)cc1` (stereo not given), for which the zone of inhibition at 50 µg/mL in [1] is 3 mm; in experiment [2] it was 2 mm; in [3] it was 5 mm; in experiment [11], 5 mm; in [12] it was 5 mm. The Activity is recorded as 51.09% in [4], 66.67% in experiment [7], 57.44% in experiment [10] and 61.79% in experiment [13]. Further, the zone of inhibition at 100 µg/mL in [5] turned out to be 8 mm; in experiment [6] it was 5 mm; in [8] it was 8 mm; in [9], 8 mm; in [14], 7 mm.

Consider `COc1ccc(C2C(Cl)C(=O)N2c2ccc(-n3c(Cc4ccccc4Nc4c(Cl)cccc4Cl)nc4ccc(Br)cc4c3=O)cc2)cc1` (stereo not given), for which the zone of inhibition at 50 µg/mL in [1] worked out at 4 mm; in experiment [2], 2 mm; in experiment [3], 4 mm; in experiment [11], 4 mm; in [12] it was 4 mm. Further, the Activity in experiment [4] was determined as 53.33%; in [7], 60.94%; in experiment [10] it was 57.14%; in [13] it was 65.76%. For the same compound, the zone of inhibition at 100 µg/mL in experiment [5] amounted to 8 mm; in experiment [6], 4 mm; in experiment [8], 8 mm; in experiment [9] it was 8 mm; in [14] it was 8 mm.

As to `COc1cc(C2C(Cl)C(=O)N2c2ccc(-n3c(Cc4ccccc4Nc4c(Cl)cccc4Cl)nc4ccc(Br)cc4c3=O)cc2)cc(OC)c1OC` (stereo not given), the zone of inhibition at 50 µg/mL was determined as 3 mm in [1]; 1 mm in experiment [2]; 5 mm in [3]; 4 mm in [11]; 4 mm in experiment [12]. Further, the Activity is listed as 50% in experiment [4], 58.33% in experiment [7], 46.48% in experiment [10] and 58.33% in [13]. Besides, the zone of inhibition at 100 µg/mL in [5] was determined as 7 mm; in [6], 2 mm; in [8], 7 mm; in [9] it was 7 mm; in [14], 7 mm.

`COc1ccc(C2C(Cl)C(=O)N2c2ccc(-n3c(Cc4ccccc4Nc4c(Cl)cccc4Cl)nc4ccc(Br)cc4c3=O)cc2)c(O)c1` (stereo not given): the zone of inhibition at 50 µg/mL was determined as 4 mm in experiment [1]; 0 mm in [2]; 4 mm in experiment [3]; 4 mm in [11]; 3 mm in experiment [12]. In addition, the Activity is reported as 50% in experiment [4], 58.33% in experiment [7], 44.69% in experiment [10] and 50.98% in experiment [13]. The zone of inhibition at 100 µg/mL worked out at 7 mm in experiment [5]; 1 mm in experiment [6]; 7 mm in experiment [8]; 6 mm in experiment [9]; 7 mm in experiment [14].

Regarding `CN(C)c1ccc(C2C(Cl)C(=O)N2c2ccc(-n3c(Cc4ccccc4Nc4c(Cl)cccc4Cl)nc4ccc(Br)cc4c3=O)cc2)cc1` (stereo not given), the zone of inhibition at 50 µg/mL in experiment [1], in [2], in experiment [3], in [11] and in [12] was 0 mm each time. Also, the Activity in [4], in experiment [7], in experiment [10] and in experiment [13] was 0% each time. Besides, the zone of inhibition at 100 µg/mL in experiment [5] worked out at 0 mm; in experiment [6] it was 1 mm; in experiment [8], 0 mm; in experiment [9], 0 mm; in experiment [14], 0 mm.

For the compound `C[C@@H]1[C@H](O)[C@@H](C)/C=C/C=C/C=C/C=C/C=C/C=C/C=C/[C@H](O[C@@H]2O[C@H](C)[C@@H](O)[C@H](N)[C@@H]2O)C[C@@H]2O[C@](O)(C[C@@H](O)C[C@@H](O)[C@H](O)CC[C@@H](O)C[C@@H](O)CC(=O)O[C@H]1C)C[C@H](O)[C@H]2C(=O)O` [AMPHOTERICIN B], the zone of inhibition at 50 µg/mL in experiment [2] amounted to 4 mm. Moreover, the zone of inhibition at 100 µg/mL in [6] was 9 mm.

With `CC1(C)S[C@@H]2[C@H](NC(=O)Cc3ccccc3)C(=O)N2[C@H]1C(=O)O` [PENICILLIN G], the zone of inhibition at 50 µg/mL in experiment [1] was determined as 7 mm; in [3], 7 mm; in experiment [11] it was 6 mm; in experiment [12], 6 mm. Moreover, the zone of inhibition at 100 µg/mL in experiment [5] was determined as 14 mm; in experiment [8], 12 mm; in experiment [9] it was 12 mm; in experiment [14] it was 14 mm.
